Tests used:
[1] = test system: BCR-ABL-expressing B-ALL cell lines engineered to depend on Bcl-2, Bcl-xL, Mcl-1 or Bfl-1; experiment: Whole-cell BH3 profiling (JC-1 mitochondrial depolarization, MOMP); type: cell-based; set-up: cross reactivity in non-Bfl-1 dependent lines: dose or concentration left out as unconfirmed; settings: JC-1 readout; for mitochondrial depolarization in cell lines dependent on Mcl-1, Bcl-2, Bcl-xL or Bfl-1: FS peptides at 100 nM
Procedure: A whole-cell BH3 profiling assay was used to test the specificity of the peptide constructs in several cell lines with known dependencies on anti-apoptotic proteins, including Bcl-2, Mcl-1, Bcl-xL, or Bfl-1. The creation and characterization of the BCR-ABL-expressing B-lineage acute lymphoblastic leukemia suspension cell lines with engineered dependencies on human versions of anti-apoptotic genes is detailed in Koss et al., Oncotarget, 7:11500-11511, 2016. Cells were grown in RPMI (Life Technologies, Carlsbad, Calif.) with 10% fetal bovine serum, 2 mM L-glutamine, 10 mL/L 100× Pen/Strep (Life Technologies #15140122), 25 mM HEPES and 10 mL/L 100×NEAA (Life Technologies, 11140050). The adherent cell lines PC-3 (RRID: CVCL_0035) and SF295 (RRID: CVCL_1690) are from the NCI60 panel (Lorenzi et al., 2009) and were grown in RPMI (Life Technologies) with 10% fetal bovine serum, 2 mM L-glutamine and 10 mL/L 100× Pen/Strep (Life Technologies #15140122). Cell line identities were confirmed by STR profiling. The Lookout Mycoplasma PCR detection kit (Sigma) was used to detect mycoplasma infection. Mycoplasma was only detected in the PC-3 cell line, and internal controls were used to account for this phenotype.
Peptides were titrated by serial dilution in MEB buffer (150 mM Mannitol, 10 mM HEPES-KOH pH 7.5, 50 mM KCl, 0.02 mM EGTA, 0.02 mM EDTA, 0.1% BSA and 5 mM Succinate) containing 20 […], […] and 10 mM 2-mercaptoethanol in 384-well plates. Controls for no depolarization (1% DMSO) and complete depolarization with the mitochondrial oxidative phosphorylation uncoupler FCCP ([…]) were included for data normalization. Cells were suspended at 1.67×10^6 cells/mL in MEB. […] was added to each well containing […] of treatment solution. Fluorescence emission was measured every 5 min for 3 hours at […] with 525 nm excitation on a Tecan Safire2. To produce percent depolarization, the area under the resultant curve was calculated and normalized to the assay controls. Peptide titration curves were fit to sigmoidal dose-response curves using Graphpad PRISM seven to obtain EC50 values.
As depicted in FIG. 9A, in this assay, permeabilized cells were contacted with increasing doses of the BH3 peptides, and mitochondrial outer membrane permeabilization (MOMP) was monitored using a voltage-sensitive dye (JC-1). The apoptotic sensitivity of BCR-ABL-expressing B-lineage acute lymphoblastic leukemia (B-ALL) cell lines engineered to depend on Bcl-2, Bcl-xL, Mcl-1 or Bfl-1 overexpression for survival.

Bfl-1 = molecular target: T1, Bfl-1 (Homo sapiens, UniProt Q16548); experiment: Competition fluorescence polarization (anisotropy) binding assay with fluoresceinated Bim; settings: for selective binding to Bfl-1 over other Bcl-2 family proteins: Ki from competition assays with fluoresceinated Bim; for affinity for Bfl-1 relative to PUMA / specificity for Bfl-1 relative to PUMA: inhibition constants, 23-residue peptides (FIG. 2I)
T1 sequence (Q16548 1-175): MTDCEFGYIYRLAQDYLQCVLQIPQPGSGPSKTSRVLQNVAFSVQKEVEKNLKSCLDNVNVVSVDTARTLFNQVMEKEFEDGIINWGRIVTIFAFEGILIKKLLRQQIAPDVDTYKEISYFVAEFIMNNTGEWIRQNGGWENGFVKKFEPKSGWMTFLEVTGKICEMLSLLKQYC
Procedure: Fluorescence polarization assays were performed in order to measure the binding abilities of the peptide constructs. Competition fluorescence polarization experiments were performed by titrating 10-0 μM of unlabeled peptide into 50 nM receptor with […] fluorecinated Bim (fluorescein-[…]) in FP buffer (25 mM Tris pH 7.8, 50 mM NaCl, 1 mM EDTA, 0.001% v/v Triton-X, 5% DMSO). C-myc-tagged receptors were used for all Bcl-2 homologs. Plates were mixed at room temperature for 3 h. Experiments were done in triplicate.
Ki values were obtained from the competition assays with fluoresceinated Bim peptide.

[2] = test system: BCR-ABL-expressing B-ALL cell lines engineered to depend on Bcl-2, Bcl-xL, Mcl-1 or Bfl-1; experiment: iBH3 profiling, cytochrome c release; type: cell-based; set-up: cross reactivity in non-Bfl-1 dependent lines: dose or concentration left out as unconfirmed
Procedure: As an additional test for on-pathway activity, cytochrome c release was measured in the same engineered cell lines in response to peptide treatment, using iBH3 profiling (see Ryan et al., Biol. Chem., 397:671-678, 2016). Cells were suspended in MEB buffer (150 mM mannitol, 50 mM KCl, 10 mM HEPES, 5 mM succinic acid, […], 0.1% BSA, final pH 7.4) at 0.5*10^6 cells/mL (adherent lines) or 2*10^6 cells/mL (suspension lines). Cell suspension was added to a 384 non-binding well plate ([…]) containing peptides at 2× final concentration in MEB with […]. Plates were incubated at 25° C. for 1 hour. To terminate exposure, […] in PBS was added to each well, plates were incubated for 10 minutes before addition of […] (1.7 M Tris, 1.25 M glycine, pH 9.1) for 5 min. […] The median fluorescence of the cytochrome c channel of Hoechst positive singlets was recorded by an IntelliCyt iQue Screener Plus. Cytochrome c release was determined by normalizing the median fluorescence intensity (MFI) data to positive control wells (Alamethicin) and negative control wells (DMSO) as follows: Cytochrome release=1−(MFIsample−MFIAlamethicin)/(MFIDMSO−MFIAlamethicin)

Bcl-xL = experiment: Ki (nM) | Bcl-xL

specificity for Bfl-1 relative to PUMA (Bfl-1) | Ki (Bcl-xL) | specificity for Bfl-1 relative to Bcl-xL, Bcl-2, Bcl-w and Mcl-1 (Bfl-1; ratio of Ki values) | Substance | mitochondrial depolarization in cell lines dependent on Mcl-1, Bcl-2, Bcl-xL or Bfl-1 [1] | selective binding to Bfl-1 over other Bcl-2 family proteins (Bfl-1) | affinity for Bfl-1 relative to PUMA (Bfl-1) | cross reactivity in non-Bfl-1 dependent lines [1] | potency of mitochondrial depolarization, comparison [1] | potency in cytochrome c release, comparison [2] | cross reactivity in non-Bfl-1 dependent lines ([2]; cytochrome c release)
significantly increased specificity | – | – | QWVREIAAGLRRAADDVNAQVER [FS2] | promoted depolarization only in Bfl-1 dependent cells | bound selectivity to Bfl-1 over other Bcl-2 family proteins | reduced affinity for Bfl-1 relative to PUMA | – | – | – | –
significantly increased specificity | – | – | QWIREIAAGLRRFADILNAQVER [FS3] | promoted depolarization only in Bfl-1 dependent cells | bound selectivity to Bfl-1 over other Bcl-2 family proteins | reduced affinity for Bfl-1 relative to PUMA | significant cross reactivity | more potently than FS1 or FS2 | more potently than FS1 or FS2 | significant cross reactivity
significantly increased specificity | 2720 ± 713 nM | at least 150 fold | Ac-QWVREIAAGLRLAADNVNAQLER-NH2 [FS1] | promoted depolarization only in Bfl-1 dependent cells | bound selectivity to Bfl-1 over other Bcl-2 family proteins | reduced affinity for Bfl-1 relative to PUMA | – | – | – | –
